{"source": "patent US6844312B2", "about": "“Production of tyrosine hydroxylase positive neurons” (Stem Cell Therapeutics Inc., priority 2001, dated 2005)", "tested_on": "neural stem cells", "test": "Effect of PACAP in lieu of forskolin in the TH cocktail on neural stem cell culture", "type": "cell-based, mice", "conditions": "2 nM PACAP versus 1 μM forskolin in the TH cocktail", "procedure": "A control experiments using 1 μM forskolin and no PACAP was performed in parallel as a comparison."}
{"substance": "pituitary adenylate cyclase activating polypeptide [PACAP]", "values": [{"measurement": "effectiveness in the production of TH positive neurons", "result": "more effective than forskolin"}]}
